Reference: US20230124862A1, “BISMUTH THIOL COMPOUNDS AND COMPOSITIONS AND METHODS OF TREATING MICROBIAL CO-INFECTIONS” (Microbion Corporation, priority 2020, published 2023)
≈ marks a conversion by molar mass, not a printed value. Where “and” joins values, the source holds several entries; their conditions need not be identical. Equal entries are not always repeated. Where two headings read alike, the source gives them in different places.

Experiments:
S. aureus ATCC 29213 [1] = test: Broth microdilution MIC (Example 12), ATCC QC organism; conditions: ATCC QC organism (Table 102)
[2] = system: vancomycin-intermediate Staphylococcus aureus (VISA); test: Broth microdilution MIC (Example 12); type: cell-based
S. aureus ATCC 29213 [3] = conditions: CLSI established QC range; cited from earlier work
Candida spp. [4] = conditions: C. parapsilosis MMX 2323 (ATCC 22019), cited from earlier work
[5] = system: C. parapsilosis ATCC 22019; conditions: C. parapsilosis ATCC 22019, CLSI established QC range, cited from earlier work
Candida krusei [6] = test: Antifungal broth microdilution (Example 13); type: cell-based; conditions: C. krusei ATCC 6258, comparators, single value
Candida spp. [7] = test: Broth microdilution MIC (Example 11); type: cell-based, C. parapsilosis, C. albicans, C. glabrata, C. tropicalis; conditions: read-out: MIC
S. aureus ATCC 29213 [8] = test: MIC control strain; conditions: QC organism, Example 13
Candida krusei [9] = conditions: C. krusei ATCC 6258, CLSI established QC range, cited from earlier work
Aspergillus spp. = test: Antifungal broth microdilution (Example 13); type: cell-based, A. niger, A. terreus, A. fumigatus, A. flavus
E. coli ATCC 25922 = test: MIC control strain; conditions: QC organism, Example 13
[10] = system: C. parapsilosis ATCC 22019; test: Antifungal broth microdilution (Example 13), QC organism; type: cell-based, Candida parapsilosis; conditions: 24 hr, comparators, single value
fungal pathogens = test: Antifungal activity, NIH/NIAID sponsored study; type: cell-based; conditions: 50% endpoint
[11] = system: P. aeruginosa and A. baumannii; conditions: P. aeruginosa MMX 103 (ATCC 27853); CLSI QC ranges shown in parenthesis; cited from earlier work
Enterobacteriaceae = conditions: E. coli MMX 102 (ATCC 25922); CLSI QC ranges shown in parenthesis; cited from earlier work
S. aureus [12] = conditions: S. aureus MMX 101 (ATCC 29213); cited from earlier work
Enterococcus spp. = test: Broth microdilution MIC (Example 11); type: cell-based, E. faecalis, E. faecium; conditions: Lev^R Cip^R Ery^R, read-out: MIC
S. pneumoniae = S. pneumoniae MMX 6837 (ATCC 49619); cited from earlier work
[13] = system: Burkholderia cepacia complex; test: Checkerboard FIC/FICI assay; type: cell-based, Burkholderia spp.; conditions: for MIC: Meropenem alone, panel with BisEDT, read-out: Drug B MIC
S. aureus [14] = test: Broth microdilution MIC (Example 11); type: cell-based, Staphylococcus aureus; conditions: Staphylococcus aureus, ATCC 29213 / MSSA, S. aureus MMX 101 (ATCC 29213); QC; MSSA; read-out: MIC
P. aeruginosa = test: Checkerboard FIC/FICI assay; type: cell-based, Pseudomonas aeruginosa; conditions: for FICB / MICB: Meropenem in combination with BisEDT; for MIC: Pseudomonas aeruginosa, Meropenem alone (checkerboard with BisEDT), read-out: Drug B MIC
[15] = B. cepacia 1793, Meropenem in combination with BisEDT, by checkerboard
[16] = P. aeruginosa 6322, one value per panel row C-G
[17] = P. aeruginosa 7745, by checkerboard
[18] = P. aeruginosa 8798, by checkerboard
[19] = P. aeruginosa 9108, by checkerboard

## CCC[C@@H]1C[C@@H](C(=O)N[C@@H]([C@H]2O[C@H](SC)[C@H](O)[C@@H](O)[C@H]2O)[C@H](C)Cl)N(C)C1 [CLI]
S. aureus ATCC 29213 [1]
  MIC: 0.25 µg/mL (≈ 0.588 µM)
[2]; S. aureus NRS 1 (hVISA)
  MIC: >8 µg/mL
[2]; S. aureus NRS 2
  MIC: >8 µg/mL
[2]; S. aureus NRS 3
  MIC: >8 µg/mL
[2]; S. aureus NRS 4
  MIC: >8 µg/mL
[2]; S. aureus NRS 13
  MIC: 0.06 µg/mL (≈ 0.141 µM)
[2]; S. aureus NRS 18
  MIC: >8 µg/mL
[2]; S. aureus NRS 22
  MIC: >8 µg/mL
[2]; S. aureus NRS 24 (hVISA)
  MIC: >8 µg/mL
[2]; S. aureus NRS 27
  MIC: >8 µg/mL
S. aureus ATCC 29213 [3]
  QC range of MIC: (0.06-0.25) μg/mL

## OC(Cn1cncn1)(Cn1cncn1)c1ccc(F)cc1F [Fluconazole]
Candida spp. [4]; 24 hr
  CLSI QC range of MIC: 0.5 to 4 µg/mL
Candida spp. [4]; 48 hr
  CLSI QC range of MIC: 1 to 4 µg/mL
[5]; 24 hr
  QC Range 24 hr: 0.5-4
[5]; 48 hr
  QC Range 48 hr: 1-4
Candida krusei [6]; 24 hr
  MIC 24 hr: 16 µg/mL (≈ 52.2 µM)
Candida krusei [6]; 48 hr
  MIC 48 hr: 32 µg/mL (≈ 104 µM)
Candida spp. [7]; 24 h, C. albicans MMX 7039, Sensitive, incubation 24 hr
  MIC: 0.5 µg/mL (≈ 1.63 µM)
Candida spp. [7]; 24 h, C. glabrata MMX 7318, FLU^R, incubation 24 hr
  MIC: > 64 µg/mL
Candida spp. [7]; 24 h, C. parapsilosis MMX 2323 (ATCC 22019), QC, incubation 24 hr
  MIC: 2 µg/mL (≈ 6.53 µM)
Candida spp. [7]; 24 h, C. parapsilosis MMX 7370, FLU^R, incubation 24 hr
  MIC: 32 µg/mL (≈ 104 µM)
Candida spp. [7]; 24 h, C. tropicalis MMX 7247, FLU^R, incubation 24 hr
  MIC: 64 µg/mL (≈ 209 µM)
Candida spp. [7]; 24 h, C. tropicalis MMX 7360, FLU^R, incubation 24 hr
  MIC: 64 µg/mL (≈ 209 µM)
Candida spp. [7]; 48 h, C. albicans MMX 7039, Sensitive, incubation 48 hr
  MIC: 0.5 µg/mL (≈ 1.63 µM)
Candida spp. [7]; 48 h, C. albicans MMX 7055, Sensitive, incubation 48 hr
  MIC: 0.5 µg/mL (≈ 1.63 µM)
Candida spp. [7]; 48 h, C. glabrata MMX 7318, FLU^R, incubation 48 hr
  MIC: > 64 µg/mL
Candida spp. [7]; 48 h, C. glabrata miX 7086, FLU^R, incubation 48 hr
  MIC: 64 µg/mL (≈ 209 µM)
Candida spp. [7]; 48 h, C. parapsilosis MMX 2323 (ATCC 22019), QC, incubation 48 hr
  MIC: 2 µg/mL (≈ 6.53 µM)
Candida spp. [7]; 48 h, C. parapsilosis MMX 7555, FLU^R, incubation 48 hr
  MIC: 64 µg/mL (≈ 209 µM)
Candida spp. [7]; 48 h, C. tropicalis MMX 7247, FLU^R, incubation 48 hr
  MIC: > 64 µg/mL
Candida spp. [7]; 48 h, C. tropicalis MMX 7248, FLU^R, incubation 48 hr
  MIC: > 64 µg/mL
Candida spp. [7]; 48 h, C. tropicalis MMX 7360, FLU^R, incubation 48 hr
  MIC: > 64 µg/mL
S. aureus ATCC 29213 [8]
  MIC 24 hr: >64
Candida krusei [9]; 24 hr
  QC Range 24 hr: 8-64
Candida krusei [9]; 48 hr
  QC Range 48 hr: 16-128
Aspergillus spp.; A. flavus ATCC 204304
  MIC 24 hr: > 64 µg/mL
  MIC 48 hr: > 64 µg/mL
Aspergillus spp.; A. fumigatus ATCC MYA-3626
  MIC 24 hr: > 64 µg/mL
  MIC 48 hr: > 64 µg/mL
E. coli ATCC 25922
  MIC 24 hr: >64
[10]
  MIC 24 hr: 1 µg/mL (≈ 3.27 µM)
Fungal pathogens; Candida albicans, read-out: Antifungal activity, MIC 50%, C. albicans CA1
  MIC50: ≤ 0.125 µg/mL
Fungal pathogens; Candida albicans, read-out: Antifungal activity, MIC 50%, C. albicans CA2
  MIC50: ≤ 0.125 µg/mL
Fungal pathogens; Candida albicans, read-out: Antifungal activity, MIC 50%, C. albicans CA3
  MIC50: > 64 µg/mL
Fungal pathogens; Candidozyma auris, read-out: Antifungal activity, MIC 50%, C. auris Cau1
  MIC50: > 64 µg/mL
Fungal pathogens; Candidozyma auris, read-out: Antifungal activity, MIC 50%, C. auris Cau2
  MIC50: 2 µg/mL (≈ 6.53 µM)
Fungal pathogens; Candidozyma auris, read-out: Antifungal activity, MIC 50%, C. auris Cau3
  MIC50: > 64 µg/mL
Fungal pathogens; Cryptococcus neoformans, read-out: Antifungal activity, MIC 50%, C. neoformans CN1
  MIC50: 64 µg/mL (≈ 209 µM)
Fungal pathogens; Cryptococcus neoformans, read-out: Antifungal activity, MIC 50%, C. neoformans CN2
  MIC50: 64 µg/mL (≈ 209 µM)
Fungal pathogens; Cryptococcus neoformans, read-out: Antifungal activity, MIC 50%, C. neoformans CN3
  MIC50: 2 µg/mL (≈ 6.53 µM)
Fungal pathogens; Lodderomyces parapsilosis, ATCC22019, read-out: Antifungal activity, MIC 50%, C. parapsilosis ATCC22019
  MIC50: 1 µg/mL (≈ 3.27 µM)
Fungal pathogens; Pichia kudriavzevii, ATCC6258, read-out: Antifungal activity, MIC 50%, C. krusei ATCC6258
  MIC50: 16 µg/mL (≈ 52.2 µM)

## C[C@@H](O)[C@H]1C(=O)N2C(C(=O)O)=C(S[C@@H]3CN[C@H](C(=O)N(C)C)C3)[C@H](C)[C@H]12 [Meropenem]
[11]
  MIC, CLSI QC range: (0.25-1) μg/mL
Enterobacteriaceae
  MIC, CLSI QC range: (0.008-0.06) μg/mL
S. aureus [12]
  CLSI QC range of MIC: (0.03-0.12) μg/mL
Enterococcus spp.; E. faecalis MMX 8960, VRE
  MIC: 8 µg/mL (≈ 20.9 µM)
Enterococcus spp.; E. faecalis MMX 8962, VRE
  MIC: 2 µg/mL (≈ 5.22 µM)
Enterococcus spp.; E. faecium MMX 485, VRE vanA
  MIC: > 64 µg/mL
Enterococcus spp.; E. faecium MMX 752, VRE vanA
  MIC: > 64 µg/mL
S. pneumoniae
  CLSI QC range of MIC: (0.06-0.25) μg/mL
[13]; B. cenocepacia 548, FIC of Meropenem (Drug B) in combination with BisEDT
  FICB: 0.5 and 1
[13]; B. cenocepacia 548, MIC of Meropenem (Drug B) in combination with BisEDT
  MICB: 2 µg/mL and 4 µg/mL
[13]; B. cenocepacia 548
  MIC: 4 µg/mL
[13]; B. cenocepacia 813, FIC of Meropenem (Drug B) in combination with BisEDT
  FICB: 0.5 and 1
[13]; B. cenocepacia 813, MIC of Meropenem (Drug B) in combination with BisEDT
  MICB: 1 µg/mL and 2 µg/mL
[13]; B. cenocepacia 813
  MIC: 2 µg/mL
[13]; B. cepacia 546, Meropenem in combination with BisEDT, by checkerboard
  FICB: 1 and 2
[13]; [15]
  FICB: 2 and 4
  MICB: 8 µg/mL and 16 µg/mL
[13]; B. multivorans 1795, FIC of Meropenem (Drug B) in combination with BisEDT
  FICB: 1
[13]; B. multivorans 1795, MIC of Meropenem (Drug B) in combination with BisEDT
  MICB: 4 µg/mL
S. aureus [14]
  MIC: 0.06 µg/mL (≈ 0.156 µM)
P. aeruginosa; [16]
  FICB: 1
  MICB: 16 µg/mL
P. aeruginosa; [17]
  FICB: 0.25 and 0.5
  MICB: 4 µg/mL and 8 µg/mL
P. aeruginosa; [18]
  FICB: 1
  MICB: 32 µg/mL
P. aeruginosa; [19]
  FICB: 1
  MICB: 0.001 µg/mL
P. aeruginosa; P. aeruginosa 6977
  MIC: 8 µg/mL
P. aeruginosa; P. aeruginosa 7745
  MIC: 16 µg/mL
P. aeruginosa; P. aeruginosa 8798
  MIC: 32 µg/mL
